Results on 11 compounds are retold here after US12448400B2, “KRAS G12D modulating compounds” (priority 2023, dated 2025).

Read-outs that look alike come from different tables or passages of the source.

One series relates to GP2D (KRAS G12D) cells. Put plainly: 2D cell viability assay (CellTiter-Glo). The series is classed as cell-based. The following applies: GP2D cells, 4 days, CellTiter-Glo luminescence, read-out: G12D 2D EC50. A digest of the protocol:
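GP2D (KRAS G12D) cells, 1000/well in RPMI + 10% FBS, were plated onto compound (1:3 DMSO series) and grown 4 days at 37 °C, 5% CO2 in 2D. CellTiter-Glo luminescence was read; EC50 is the concentration giving 50% signal decrease, from sigmoidal fit.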
(In general: In ATP-based viability assays light output follows the ATP content of the culture.)

Series [1] is described as follows: Mouse oral cassette pharmacokinetics. The series is classed as in vivo, male CD-1 mice. Here is the method:
Mouse Oral Cassette Pharmacokinetics
Test compounds (1-3 compounds per cassette) were formulated in solution formulations (10 w/v % Captisol in 50 mM Citrate buffer) and administered orally at 30 mg-eq./kg each compound to a group of four male CD-1 mice. The test articles were administrated by oral gavage at a dose volume of 10 mL-eq/kg.
Blood samples were collected at 0.5, 1, 3, 6, 8, and 24 hours post dose into K2EDTA tubes and stored on wet ice until processed. Whole blood was processed to plasma by centrifugation (3500 rpm for 10 minutes at 5° C.) within 30 minutes of collection. Plasma samples were placed in Micronic 96 well tubes and stored at −80° C. until transferred. Plasma concentration of the test compounds was determined by LC-MS/MS. Pharmacokinetic parameters were estimated using non-compartment model analysis. The maximum observed concentration (Cmax) and area under the curve from time of dosing to last measured concentration (AUClast) were calculated and reported.

The target in a further series is GDP-loaded KRAS G12D (Homo sapiens, UniProt P01116, G12D). Description: KRAS G12D (GDP) biochemical assay, TR-FRET probe displacement. Format: binding. The conditions noted are these: 0.5 nM enzyme, 30 min pre-incubation, 2 h incubation, TR-FRET ratio; read-out: G12D IC50. The protocol:
Example A. KRAS G12D (GDP) Biochemical Assay
Compounds were tested for binding to GDP-loaded KRAS G12D in a 384-well assay format using a TR-FRET probe displacement assay in buffer consisting of 50 mM Hepes (pH 7.4), 150 mM NaCl, 5 mM MgCl2 and 0.005% Tween-20. […] Compounds were serially diluted (1:3) in DMSO. The LabCyte ECHO Acoustic dispenser system was used to pre-spot the assay plates (384-well Non-Binding Surface plates, Corning, Catalog #3824) with 50 nL of compound. The compounds were pre-incubated with 5 μL of 2× final enzyme concentration for 30 minutes before adding 5 μL of 2× final concentration of Eu-streptavidin and TR-FRET probe (10 μL final reaction volume). The plates were incubated at room temperature for 2 hours before measuring TR-FRET ratio on the Envision plate reader. IC50 values were defined as the compound concentration that causes a 50% decrease in TR-FRET ratio and were calculated using a sigmoidal dose-response model to generate curve fits.

[2] abbreviates: oral gavage, 30 mg-eq./kg each compound, cassette, plasma, AUClast of parent.
The mark [3] stands for this setting: male, CD-1, mouse, in vivo, po, 30 mg/kg.

“4-(((1S,4R,11R,14aR)-11-(8-ethynyl-7-fluoro-3-hydroxynaphthalen-1-yl)-10,12-difluoro-8-(((2R,7aS)-2-fluorotetrahydro-1H-pyrrolizin-7a(5H)-yl)methoxy)-1,2,3,4,5,13,14,14a-octahydro-1,4-epiminoazepino[1′,2′:1,71azepino[2,3,4-de]quinazolin-15-yl)methyl)-5-methyl-1,3-dioxol-2-one [Example 37]”: the EC50 with GP2D (KRAS G12D) cells is 0.23 nM. Also, in series [1] (setting [2]), the “Mouse Parent AUC” value came to 0.13 µM·h. The IC50 on GDP-loaded KRAS G12D is 1 nM.
As to `Cc1cc(N)nc(-c2c(Cl)c3c4c(nc(OC[C@@]56CCCN5C[C@H](F)C6)nc4c2F)N2C[C@H]4CC[C@@H]([C@H]2CC3)N4Cc2oc(=O)oc2C)c1C(F)(F)F` (atropisomer, axis not shown; (aR)) [Example 3, 4-(((1R,4S,14aR)-11-((R)-6-amino-4-methyl-3-(trifluoromethyl)pyridin-2-yl)-12-chloro-10-fluoro-8-(((2R,7aS)-2-fluorotetrahydro-1H-pyrrolizin-7a(5H)-yl)methoxy)-1,2,3,4,5,13,14,14a-octahydro-1,4-epiminoazepino[1′,2′:1,7]azepino[2,3,4-de]quinazolin-15-yl)methyl)-5-methyl-1,3-dioxol-2-one], the EC50 in the series with GP2D (KRAS G12D) cells (96 h) came to 0.92 nM. Moreover, the “Mouse Parent AUC” value in series [1] (setting [3]) was 5.7 µM·h. Further, the half-maximal inhibitory concentration (IC50) at GDP-loaded KRAS G12D worked out at 4.7 nM.
The like results for `C#Cc1c(F)ccc2cccc(-c3nc4c5c(nc(OC[C@@]67CCCN6C[C@H](F)C7)nc5c3F)N3C[C@H]5CC[C@@H]([C@H]3CCC4)N5Cc3oc(=O)oc3C)c12` [Example 1, 4-(((6aR,7S,10R)-2-(8-ethynyl-7-fluoronaphthalen-1-yl)-1-fluoro-13-(((2R,7aS)-2-fluorotetrahydro-1H-pyrrolizin-7a(5H)-yl)methoxy)-5,6,6a,7,8,9,10,11-octahydro-4H-3,11a,12,14,15-pentaaza-7,10-methanocyclohepta[4,5]cycloocta[1,2,3-de]naphthalen-15-yl)methyl)-5-methyl-1,3-dioxol-2-one] were, in that order, 5.8 nM, 3.6 µM·h and 2.5 nM.
The like results for `C#Cc1c(F)ccc2cc(O)cc(-c3nc4c5c(nc(OC[C@@]67CCCN6C[C@H](F)C7)nc5c3F)N3C[C@H]5CC[C@@H]([C@H]3CCC4)N5Cc3oc(=O)oc3C)c12` [Example 8, 4-(((6aR,7S,10R)-2-(8-ethynyl-7-fluoro-3-hydroxynaphthalen-1-yl)-1-fluoro-13-(((2R,7aS)-2-fluorotetrahydro-1H-pyrrolizin-7a(5H)-yl)methoxy)-5,6,6a,7,8,9,10,11-octahydro-4H-3,11a,12,14,15-pentaaza-7,10-methanocyclohepta[4,5]cycloocta[1,2,3-de]naphthalen-15-yl)methyl)-5-methyl-1,3-dioxol-2-one] were, in that order, 0.49 nM, 1.1 µM·h and 4.8 nM.
The like results for `C#Cc1c(F)ccc2cc(O)cc(-c3nc4c5c(nc(OC[C@@]67CCCN6C[C@H](F)C7)nc5c3F)N3C[C@H]5CC[C@@H]([C@H]3CCC4)N5Cc3oc(=O)oc3C(C)(C)C)c12` [Example 9, 4-(tert-butyl)-5-(((6aR,7S,10R)-2-(8-ethynyl-7-fluoro-3-hydroxynaphthalen-1-yl)-1-fluoro-13-(((2R,7aS)-2-fluorotetrahydro-1H-pyrrolizin-7a(5H)-yl)methoxy)-5,6,6a,7,8,9,10,11-octahydro-4H-3,11a,12,14,15-pentaaza-7,10-methanocyclohepta[4,5]cycloocta[1,2,3-de]naphthalen-15-yl)methyl)-1,3-dioxol-2-one] were, in that order, 1.9 nM, 0.16 µM·h and 12 nM.
For the compound `C#Cc1c(F)ccc2cc(O)cc(-c3nc4c5c(nc(OC[C@@]67CCCN6C[C@H](F)C7)nc5c3F)N3C[C@H]5CC[C@@H]([C@H]3CCC4)N5Cc3oc(=O)oc3CCCCCCCC)c12` [Example 10, 4-(((6aR,7S,10R)-2-(8-ethynyl-7-fluoro-3-hydroxynaphthalen-1-yl)-1-fluoro-13-(((2R,7aS)-2-fluorotetrahydro-1H-pyrrolizin-7a(5H)-yl)methoxy)-5,6,6a,7,8,9,10,11-octahydro-4H-3,11a,12,14,15-pentaaza-7,10-methanocyclohepta[4,5]cycloocta[1,2,3-de]naphthalen-15-yl)methyl)-5-octyl-1,3-dioxol-2-one], in the series on GP2D (KRAS G12D) cells (96 h), the EC50 was 0.16 nM. Moreover, the “Mouse Parent AUC” value in series [1] (setting [3]) turned out to be 0.44 µM·h. The IC50 at GDP-loaded KRAS G12D turned out to be 7.8 nM.
The like results for `C#Cc1c(F)ccc2cc(O)cc(-c3nc4c5c(nc(OC[C@@]67CCCN6C[C@H](F)C7)nc5c3F)N3C[C@H]5CC[C@@H]([C@H]3CC[C@H]4C)N5Cc3oc(=O)oc3C)c12` [Example 11, 4-(((4R,6aR,7S,10R)-2-(8-ethynyl-7-fluoro-3-hydroxynaphthalen-1-yl)-1-fluoro-13-(((2R,7aS)-2-fluorotetrahydro-1H-pyrrolizin-7a(5H)-yl)methoxy)-4-methyl-5,6,6a,7,8,9,10,11-octahydro-4H-3,11a,12,14,15-pentaaza-7,10-methanocyclohepta[4,5]cycloocta[1,2,3-de]naphthalen-15-yl)methyl)-5-methyl-1,3-dioxol-2-one] were, in that order, 0.12 nM, 0.96 µM·h and 4.4 nM.
The like results for `C#Cc1c(F)ccc2cc(O)cc(-c3nc4c5c(nc(OC[C@@]67CCCN6C[C@H](F)C7)nc5c3F)N3C[C@H]5CC[C@H](N5)[C@H]3CC[C@H]4C)c12` [Example 11-P, 5-ethynyl-6-fluoro-4-((4R,6aR,7S,10R)-1-fluoro-13-(((2R,7aS)-2-fluorotetrahydro-1H-pyrrolizin-7a(5H)-yl)methoxy)-4-methyl-5,6,6a,7,8,9,10,11-octahydro-4H-3,11a,12,14,15-pentaaza-7,10-methanocyclohepta[4,5]cycloocta[1,2,3-de]naphthalen-2-yl)naphthalen-2-ol] were, in that order, 0.09 nM, 0.14 µM·h and 0.09 nM.
As for `C#Cc1c(F)ccc2cc(O)cc(-c3c(F)c4c5c(nc(OCC67CCCN6CC(F)C7)nc5c3F)N3CC5CCC(C3CCC4)N5Cc3oc(=O)oc3C)c12` [Example 28, 4-(((1S,4R,11R,15aR)-11-(8-ethynyl-7-fluoro-3-hydroxynaphthalen-1-yl)-10,12-difluoro-8-(((2R,7aS)-2-fluorotetrahydro-1H-pyrrolizin-7a(5H)-yl)methoxy)-2,3,4,5,13,14,15,15a-octahydro-1H-1,4-epiminoazepino[1′,2′:1,8]azocino[2,3,4-de]quinazolin-16-yl)methyl)-5-methyl-1,3-dioxol-2-one], the EC50 with GP2D (KRAS G12D) cells was 0.18 nM. In addition, the “Mouse Parent AUC” value in series [1] (setting [2]) stood at 0.7 µM·h.
As for `C#Cc1c(F)ccc2cc(O)cc(-c3nc4c5c(nc(OC[C@@]67CCCN6C[C@H](F)C7)nc5c3F)N3C[C@H]5CC[C@@H]([C@@H]3[C@@H](C)[C@H]4C)N5Cc3oc(=O)oc3C)c12` [Example 29, 4-(((7R,8S,8aS,9S,12R)-5-(8-ethynyl-7-fluoro-3-hydroxynaphthalen-1-yl)-4-fluoro-2-(((2R,7aS)-2-fluorotetrahydro-1H-pyrrolizin-7a(5H)-yl)methoxy)-7,8-dimethyl-7,8,8a,9,10,11,12,13-octahydro-1,3,6,13a,14-pentaaza-9,12-methanonaphtho[1,8-ab]heptalen-14-yl)methyl)-5-methyl-1,3-dioxol-2-one], the 50% effective concentration (EC50) with GP2D (KRAS G12D) cells (96 h) came to 0.13 nM. The “Mouse Parent AUC” value in series [1] (setting [3]) was 0.75 µM·h.
The like results for `C#Cc1c(F)ccc2cc(OC(=O)C(C)C)cc(-c3nc4c5c(nc(OC[C@@]67CCCN6C[C@H](F)C7)nc5c3F)N3C[C@H]5CC[C@@H]([C@H]3CCC4)N5Cc3oc(=O)oc3C)c12` [Example 30, 5-ethynyl-6-fluoro-4-((6aR,7S,10R)-1-fluoro-13-(((2R,7aS)-2-fluorotetrahydro-1H-pyrrolizin-7a(5H)-yl)methoxy)-15-((5-methyl-2-oxo-1,3-dioxol-4-yl)methyl)-5,6,6a,7,8,9,10,11-octahydro-4H-3,11a,12,14,15-pentaaza-7,10-methanocyclohepta[4,5]cycloocta[1,2,3-de]naphthalen-2-yl)naphthalen-2-yl isobutyrate] were, in that order, 0.22 nM and 0.66 µM·h.

Usually EC50 stands for the concentration at which the effect is half-maximal. Broadly, the IC50 is the midpoint of a concentration-inhibition curve.
